The results in this text go back to article PMC8780828 (Viruses, 2021).

For data set [1], the system named is P-gp. Description: in vitro. Conditions: human.
The target of data set [2] is β-lactamase. In kind it is biochemical.
For data set [3], the target named is SARS-CoV-2 spike S1 subunit protein (Severe acute respiratory syndrome coronavirus 2, UniProt P0DTC2). In kind it is binding.
In data set [4] the target is CYP2D6 (Homo sapiens, UniProt P10635). The data set is described as follows: in vitro. To be noted: microsomes, pH 7.4.
Chain of CYP2D6 (P10635 whole entry): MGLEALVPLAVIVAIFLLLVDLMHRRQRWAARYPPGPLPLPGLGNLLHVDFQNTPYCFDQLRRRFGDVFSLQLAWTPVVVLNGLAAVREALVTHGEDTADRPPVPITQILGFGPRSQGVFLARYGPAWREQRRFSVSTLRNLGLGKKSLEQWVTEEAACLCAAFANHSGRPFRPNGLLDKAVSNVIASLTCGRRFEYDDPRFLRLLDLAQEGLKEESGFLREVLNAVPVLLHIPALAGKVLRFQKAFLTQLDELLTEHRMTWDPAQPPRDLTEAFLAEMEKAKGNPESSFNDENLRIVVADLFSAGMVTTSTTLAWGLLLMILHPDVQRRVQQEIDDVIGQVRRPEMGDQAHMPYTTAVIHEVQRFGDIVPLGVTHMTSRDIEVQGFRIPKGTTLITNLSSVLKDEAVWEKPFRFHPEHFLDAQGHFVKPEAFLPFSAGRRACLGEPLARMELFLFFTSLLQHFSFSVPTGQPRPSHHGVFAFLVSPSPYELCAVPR
Data set [5] deals with Trypsin. In kind it is biochemical.
Data set [6] can be described thus: physchem.
Data set [7] deals with CYP2C19 (Homo sapiens, UniProt P33261). Description: biochemical.
Chain of CYP2C19 (P33261 whole entry): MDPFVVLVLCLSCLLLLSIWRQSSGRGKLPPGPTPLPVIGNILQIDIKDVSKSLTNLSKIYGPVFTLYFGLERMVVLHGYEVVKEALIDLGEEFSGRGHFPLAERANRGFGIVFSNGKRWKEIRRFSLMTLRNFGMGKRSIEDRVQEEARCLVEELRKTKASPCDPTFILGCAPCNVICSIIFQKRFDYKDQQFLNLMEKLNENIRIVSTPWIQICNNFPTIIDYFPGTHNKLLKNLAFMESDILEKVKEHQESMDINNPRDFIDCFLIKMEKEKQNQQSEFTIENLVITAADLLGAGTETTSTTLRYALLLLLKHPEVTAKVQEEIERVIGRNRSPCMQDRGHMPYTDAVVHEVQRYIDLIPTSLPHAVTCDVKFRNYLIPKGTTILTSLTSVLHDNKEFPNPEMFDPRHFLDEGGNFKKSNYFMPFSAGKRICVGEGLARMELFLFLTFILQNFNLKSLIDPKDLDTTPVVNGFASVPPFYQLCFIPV
The target of data set [8] is CYP2C9 (Homo sapiens, UniProt P11712). Description: biochemical.
Chain of CYP2C9 (P11712 whole entry): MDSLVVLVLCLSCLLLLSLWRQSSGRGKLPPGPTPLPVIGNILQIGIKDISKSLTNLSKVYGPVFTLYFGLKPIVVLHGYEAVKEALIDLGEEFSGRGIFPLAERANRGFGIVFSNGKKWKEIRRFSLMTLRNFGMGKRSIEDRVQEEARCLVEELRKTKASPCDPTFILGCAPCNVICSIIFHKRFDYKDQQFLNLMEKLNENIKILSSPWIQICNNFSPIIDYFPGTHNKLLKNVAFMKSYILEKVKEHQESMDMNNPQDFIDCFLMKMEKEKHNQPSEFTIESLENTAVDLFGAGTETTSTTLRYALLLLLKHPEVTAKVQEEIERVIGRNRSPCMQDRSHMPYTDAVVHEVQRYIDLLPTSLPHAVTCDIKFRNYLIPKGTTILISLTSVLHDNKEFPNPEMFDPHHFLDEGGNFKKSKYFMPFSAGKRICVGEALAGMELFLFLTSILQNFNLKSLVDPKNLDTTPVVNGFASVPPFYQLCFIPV
A short description of data set [9]: in vitro. Conditions: both, human, plasma.

Converted amounts (≈) assume the structure as drawn.

Take `O=C(O)c1cc(-c2ccc(/C=C3\SC(=S)N(CCc4ccccc4)C3=O)o2)ccc1Cl` [NBCoV1]: the Papp A→B in data set [1] (Caco-2, pH 7.4, Caco-2 permeability (mean Papp) A-to-B, 5 µM) stood at 16.9 ×10⁻⁶ cm/s; in data set [1] (Caco-2, pH 7.4, Papp A-to-B, single replicates (R1, R2)) it was 20.4 ×10⁻⁶ cm/s. Further, the Papp B→A in data set [1] (Caco-2, pH 7.4, Caco-2 permeability (mean Papp) B-to-A, 5 µM) is 20.4 ×10⁻⁶ cm/s; in data set [1] (Caco-2, pH 7.4, Papp B-to-A, single replicates (R1, R2)) it was 20.9 ×10⁻⁶ cm/s. In addition, the IC50 in data set [2] is more than 2 µM; in [4], more than 10 µM; in data set [5] it was more than 2 µM; in [7] it was 7.31 µM; in [8] it was 5.01 µM. In data set [3], this molecule showed a kd of 0.0257 s⁻¹. Moreover, the activity at 0.0137 µM in data set [4] came to 95.8%. Besides, the activity at 0.0412 µM in data set [4] was 98.7%. In addition, the activity at 0.123 µM in [4] is 98.6%. The activity at 0.37 µM in data set [4] is 101%. In data set [4], the activity at 1.11 µM came out at 97%. For the same molecule, in data set [4], the activity at 3.33 µM amounted to 84.3%. The activity at 10 µM in data set [4] was found to be 59.2%. In addition, the solubility was determined as 4.72 µM (≈ 2.22 µg/mL) in data set [6] (pH 7.4, Solubility (AVG)) and 4.35 µM (≈ 2.04 µg/mL) in data set [6] (pH 7.4, Solubility, single replicates (R1, R2)). Moreover, the fraction unbound was less than 0.005 in [9] and less than 0.005 in data set [9] (% Bound, single replicates (R1, R2)).
